This note sets out measurements from patent US20260364057A1, “AMIDE COMPOUND, AND COMPOSITION AND USE THEREOF” (SIMCERE ZAIMING PHARMACEUTICAL CO., LTD., priority 2022, published 2026).

For assay [1], the system named is OVCAR3 cells. The assay is described as follows: Inhibition of proliferation of OVCAR-3 cells (Cell-Titer Glo). It is filed as cell-based. The following applies: Homo sapiens, OVCAR-3, 72 h, 3 days, 1000 cells/well. From the text: Test Example 2. Test on Inhibition of Proliferation of OVCAR-3 Cells by Compounds of Present Disclosure
Cell and material: The human ovarian cancer cell line OVCAR3 was purchased from ATCC (Cat. No. HTB-161™), RPMI 1640 medium (Gibco #A1049101), penicillin-streptomycin (Gibco #15140122), and 0.25% Trypsin-EDTA (Gibco #25200056) were purchased from Gibco (U.S.), bovine insulin (Yeasen #40107ES60) was purchased from Yeasen, 384-well plates (Corning #CLS3765) was purchased from Corning (U.S.), and Cell-Titer Glo reagent (Promega #G7568) was purchased from Promega (U.S.).
Cell culture: OVCAR3 cells were cultured in RPMI 1640 complete medium (RPMI 1640 medium containing 20% fetal bovine serum, […] bovine insulin, and 1% penicillin-streptomycin) in an incubator (37 °C, 5% CO2), and the cells could be used in experiments when in the logarithmic growth phase.
Cell proliferation activity test: The Cell-Titer Glo reagent was used to test the compound for inhibition of proliferation of the OVCAR3 cell strain. The compound formulated with DMSO and pure DMSO (control) were each added to a 384-well plate using an Echo instrument; the compound was subjected to 3-fold serial dilution starting from 30 μM to obtain 11 concentration points, and the volume of the compound or DMSO added was 100 nL.
OVCAR3 cells were digested and resuspended in RPMI 1640 complete medium, and the suspension was added to a 384-well plate (1000 cells/50 μL/well) to be well mixed with the compound. The mixture was incubated in an incubator (37 °C, 5% CO2) for 3 days. The Cell-Titer Glo reagent was added at 25 µL/well, and the resulting mixture was well mixed by shaking and then incubated for 10 min. The Cell-Titer Glo readings were measured with a Multimode Plate Reader (brand: PerkinElmer; model: SIC-PV-018).
A negative control group (Bottom) was set, and the negative control group was medium wells with 0.2% DMSO added and was defined as 100% proliferation inhibition; the positive control group (Top) was OVCAR3 cell wells with 0.2% DMSO added.
The percent proliferation inhibition (% Inhibition) was calculated, and the curves were fit using the four-parameter equation, Y=Bottom+(Top−Bottom)/(1+(IC50/X)^HillSlope), to obtain the proliferation inhibition IC50 of the compound. • Percent inhibition: % Inhibition=(1−(Signal−Bottom)/(Top−Bottom))×100%. • Signal: Cell-Titer Glo reading of wells with compound added; • Bottom: Cell-Titer Glo reading of negative control wells; • Top: Cell-Titer Glo reading of positive control wells.

Assay [2] has as its target T1, Human KIF18A (1-376aa) (Homo sapiens, UniProt Q8NI77).
T1 construct: Human KIF18A (1-376aa) protease used in the experiments; purchased Shanghai Panchao Biotechnology Co., Ltd
T1 sequence (Q8NI77 1-376): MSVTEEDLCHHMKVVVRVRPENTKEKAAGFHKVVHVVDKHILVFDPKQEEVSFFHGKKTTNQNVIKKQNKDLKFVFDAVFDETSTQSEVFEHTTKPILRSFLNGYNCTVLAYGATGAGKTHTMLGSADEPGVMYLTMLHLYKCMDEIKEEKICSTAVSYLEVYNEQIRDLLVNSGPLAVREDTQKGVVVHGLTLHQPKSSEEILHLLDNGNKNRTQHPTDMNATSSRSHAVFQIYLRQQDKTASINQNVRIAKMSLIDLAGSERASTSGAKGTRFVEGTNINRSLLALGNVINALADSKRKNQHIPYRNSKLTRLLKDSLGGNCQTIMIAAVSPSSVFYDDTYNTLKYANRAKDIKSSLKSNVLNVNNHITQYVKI
In words: KIF18A enzyme activity assay (ADP-Glo). It is filed as biochemical. The following applies: microtubule 50 μg/mL, ATP (Km 70 μM), room temperature, 15 min, read-out: KIF18A inhibitory activity IC50. For orientation: ADP-Glo first removes unused ATP, then detects ADP through luciferase.

pIC50: −log10 of the molar value.

Usually pIC50 stands for the negative decadic logarithm of the IC50, by convention in mol/L. In the case of `O=C(Nc1cccc2c1nc1n2C2CCC1C2)c1ccc(NS(=O)(=O)CCO)cc1N1CCC2(CC1)CC2` (centres unmarked) [Compound 72], the pIC50 was 7.24 in assay [1] and over 6.70 in assay [2].

Regarding `O=C(Nc1cc(N2CCC(F)(F)CC2)n2nccc2c1)c1ccc(NS(=O)(=O)CCO)cc1N1CCC2(CC1)CC2` [Compound 81], the pIC50 was 7.74 in assay [1] and over 6.70 in assay [2].

For the molecule `CCS(=O)(=O)Nc1ccc(C(=O)Nc2cc3c(c(N4CCC(F)(F)CC4)c2)CCC3)c(N2CCC3(CC2)CC3)c1` [Compound 73], the pIC50 in assay [1] was 7.42; in assay [2], over 6.70.

With `O=C(Nc1cn2ccnc2c(N2CCC(F)(F)CC2)n1)c1ccc(NS(=O)(=O)CCO)cc1N1CCC2(CC1)CC2` [Compound 44], the results for the pIC50 in assay [1] and in assay [2] were 8.04 and over 6.70, respectively.

For the molecule `O=C(Nc1cccc2c1nc1n2C2CCC1OC2)c1ccc(NS(=O)(=O)CCO)cc1N1CCC2(CC1)CC2` (centres unmarked) [Compound 77], the pIC50 in assay [1] was 7.60; in assay [2], over 6.70.

On to `COC(=O)c1ccc(NC(=O)c2ccc(NS(=O)(=O)CCO)cc2N2CCC3(CC2)CC3)c2nc3n(c12)CCCCC3` [Compound 112], for which the pIC50 is 7.82 in assay [1] and over 6.70 in assay [2].

As to `O=C(Nc1cc2c(c(N3CCC(F)(F)CC3)c1)COC2)c1ccc(NS(=O)(=O)CCO)cc1N1CCC2(CC1)CC2` [Compound 101], the pIC50 was 8.04 in assay [1] and over 6.70 in assay [2].

Consider `O=C(Nc1cccc2c1nc1n2CCOCC1)c1ccc(NS(=O)(=O)CCO)cc1N1CCC2(CC1)CC2` [Compound 53], for which the pIC50 was 7.68 in assay [1] and over 6.70 in assay [2].

As to `O=C(Nc1cccc2c1nc1n2CC2C1C2(F)F)c1ccc(NS(=O)(=O)CCO)cc1N1CCC2(CC1)CC2` (centres unmarked) [Compound 86], the pIC50 is 8.19 in assay [1] and over 6.70 in assay [2].

Regarding `O=C(Nc1cc2c(c(N3CCC(F)(F)CC3)c1)OCC2)c1ccc(NS(=O)(=O)CCO)cc1N1CCC2(CC1)CC2` [Compound 28], the pIC50 is 8.44 in assay [1] and over 6.70 in assay [2].
